Molecular target: T1, BRM (Homo sapiens, UniProt P51531)
T1 construct: Western Blot Screen of BRM Degradation in SW1573 Cells; endogenous in cells; host or cells: SW1573 cells
Experiment: BRM degradation (Dmax and DC50) in SW1573 cells, Western blot screen / In-Cell Western screen
Format: cell-based
Conditions: overnight (18-20 hours) treatment; for Dmax: read-out: Dmax (%)** (% degraded)
Procedure, shortened: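 Dmax and DC50 were derived from BRM levels normalised to an alpha-tubulin control, measured by chemiluminescent Western blotting of lysates or by PFA-fixed In-Cell Western on LI-COR Odyssey. SW1573 cells received compound overnight (18–20 h, 0.1% DMSO final).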

T1 sequence (P51531 whole entry): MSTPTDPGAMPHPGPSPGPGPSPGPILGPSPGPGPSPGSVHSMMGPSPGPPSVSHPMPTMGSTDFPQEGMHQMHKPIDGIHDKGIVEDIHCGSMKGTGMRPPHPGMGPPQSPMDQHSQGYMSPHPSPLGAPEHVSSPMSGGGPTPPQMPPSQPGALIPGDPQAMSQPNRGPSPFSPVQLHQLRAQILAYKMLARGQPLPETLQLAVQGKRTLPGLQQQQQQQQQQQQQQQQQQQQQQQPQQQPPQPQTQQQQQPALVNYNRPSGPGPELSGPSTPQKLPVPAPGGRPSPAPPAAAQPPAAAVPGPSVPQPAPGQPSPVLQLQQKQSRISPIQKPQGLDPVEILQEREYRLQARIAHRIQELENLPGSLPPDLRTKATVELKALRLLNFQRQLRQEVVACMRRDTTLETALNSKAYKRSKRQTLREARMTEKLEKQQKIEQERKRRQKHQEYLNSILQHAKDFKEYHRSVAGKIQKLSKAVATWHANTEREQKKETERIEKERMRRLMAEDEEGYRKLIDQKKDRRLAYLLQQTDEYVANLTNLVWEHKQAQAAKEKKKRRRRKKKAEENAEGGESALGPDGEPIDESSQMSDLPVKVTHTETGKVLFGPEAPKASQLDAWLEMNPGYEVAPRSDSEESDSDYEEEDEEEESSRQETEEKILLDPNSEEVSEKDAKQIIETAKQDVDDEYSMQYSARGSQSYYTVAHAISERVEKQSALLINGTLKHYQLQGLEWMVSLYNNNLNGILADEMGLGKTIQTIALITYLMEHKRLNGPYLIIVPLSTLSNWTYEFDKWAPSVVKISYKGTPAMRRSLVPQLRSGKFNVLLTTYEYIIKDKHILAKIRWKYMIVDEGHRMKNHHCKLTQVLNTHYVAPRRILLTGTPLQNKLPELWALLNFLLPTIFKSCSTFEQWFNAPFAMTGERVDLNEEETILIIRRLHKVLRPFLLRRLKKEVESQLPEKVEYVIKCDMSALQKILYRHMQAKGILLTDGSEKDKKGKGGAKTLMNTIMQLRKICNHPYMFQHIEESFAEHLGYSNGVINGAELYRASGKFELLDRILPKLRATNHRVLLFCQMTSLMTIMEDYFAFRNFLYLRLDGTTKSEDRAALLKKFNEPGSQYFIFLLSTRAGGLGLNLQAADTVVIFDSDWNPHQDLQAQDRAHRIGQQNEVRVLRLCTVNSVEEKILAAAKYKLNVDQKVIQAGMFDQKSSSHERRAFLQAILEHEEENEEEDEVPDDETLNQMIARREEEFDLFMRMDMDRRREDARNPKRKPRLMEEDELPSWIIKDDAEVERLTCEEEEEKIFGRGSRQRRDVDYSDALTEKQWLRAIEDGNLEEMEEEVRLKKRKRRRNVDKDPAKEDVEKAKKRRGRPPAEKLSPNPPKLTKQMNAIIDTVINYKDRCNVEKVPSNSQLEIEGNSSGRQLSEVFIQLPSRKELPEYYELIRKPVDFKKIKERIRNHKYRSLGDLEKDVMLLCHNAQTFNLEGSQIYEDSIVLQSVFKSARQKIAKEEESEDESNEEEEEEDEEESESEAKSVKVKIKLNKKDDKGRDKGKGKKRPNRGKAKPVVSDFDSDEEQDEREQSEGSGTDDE

Row | Structure (SMILES) | DC50 | Dmax
1 | Cc1ncsc1-c1ccc([C@H](C)NC(=O)[C@@H]2C[C@@H](O)CN2C(=O)[C@@H](c2cc(N3CCC(CN4CCC5(CC4)CC(N4CCO[C@H](CN6C7CCC6CN(c6cc(-c8ccccc8O)nnc6N)C7)C4)C5)CC3)no2)C(C)C)cc1 [Compound 35, (2S,4R)-1-[(2R)-2-{3-[4-({2-[(2S)-2-({3-[3-amino-6-(2-hydroxyphenyl)pyridazin-4-yl]-3,8-diazabicyclo[3.2.1]octan-8-yl}methyl)morpholin-4-yl]-7-azaspiro[3.5]nonan-7-yl}methyl)piperidin-1-yl]-1,2-oxazol-5-yl}-3-methylbutanoyl]-4-hydroxy-N-[(1S)-1-[4-(4-methyl-1,3-thiazol-5-yl)phenyl]ethyl]pyrrolidine-2-carboxamide] | < 2.5 nM | > 75%
2 | CC(C)[C@@H](C(=O)N1C[C@H](O)C[C@H]1C(=O)N[C@@H](C)c1ccc(C#N)cc1)c1cc(N2CCC(OCCN3CCC(O[C@H]4C[C@H](Oc5cc(N6C7CCC6CN(c6cc(-c8ccccc8O)nnc6N)C7)ccn5)C4)CC3)CC2)no1 [Compound 153, (2S,4R)-N-[(1S)-1-(4-cyanophenyl)ethyl]-4-hydroxy-1-[(2R)-3-methyl-2-{3-[4-(2-{4-[(1r,3r)-3-[(4-{3-[3-amino-6-(2-hydroxyphenyl)pyridazin-4-yl]-3,8-diazabicyclo[3.2.1]octan-8-yl}pyridin-2-yl)oxy]cyclobutoxy]piperidin-1-yl}ethoxy)piperidin-1-yl]-1,2-oxazol-5-yl}butanoyl]pyrrolidine-2-carboxamide] | < 2.5 nM | > 75%
3 | Cc1ncsc1-c1ccc([C@H](C)NC(=O)[C@@H]2C[C@@H](O)CN2C(=O)[C@@H](c2cc(N3CCC(CN4CCC(O[C@H]5C[C@H](N6CCC7(CC6)CC(N6C8CCC6CN(c6cc(-c9ccccc9O)nnc6N)C8)C7)C5)CC4)CC3)no2)C(C)C)cc1 [Compound 44, (2S,4R)-4-hydroxy-N-[(1S)-1-[4-(4-methyl-1,3-thiazol-5-yl)phenyl]ethyl]-1-[(2R)-3-methyl-2-{3-[4-({4-[(1r,3r)-3-(2-{3-[3-amino-6-(2-hydroxyphenyl)pyridazin-4-yl]-3,8-diazabicyclo[3.2.1]octan-8-yl}-7-azaspiro[3.5]nonan-7-yl)cyclobutoxy]piperidin-1-yl}methyl)piperidin-1-yl]-1,2-oxazol-5-yl}butanoyl]pyrrolidine-2-carboxamide] | < 2.5 nM | > 75%
4 | Cc1ncsc1-c1ccc([C@H](C)NC(=O)[C@@H]2C[C@@H](O)CN2C(=O)[C@@H](c2cc(N3CCC(CN4CCC(O[C@H]5C[C@@H](N6CCC([C@@H](C)n7cc(-c8cc(-c9ccccc9O)nnc8N)cn7)CC6)C5)CC4)CC3)no2)C(C)C)cc1 (single isomer, unassigned) [Compound 6] | < 2.5 nM | > 75%
5 | Cc1ncsc1-c1ccc([C@H](C)NC(=O)[C@@H]2C[C@@H](O)CN2C(=O)[C@@H](c2cc(N3CCC(CN4CCC5(CC4)CC(N4CCO[C@@H](CN6C7CCC6CN(c6cc(-c8ccccc8O)nnc6N)C7)C4)C5)CC3)no2)C(C)C)cc1 [Compound 119, (2S,4R)-1-[(2R)-2-{3-[4-({2-[(2R)-2-({3-[3-amino-6-(2-hydroxyphenyl)pyridazin-4-yl]-3,8-diazabicyclo[3.2.1]octan-8-yl}methyl)morpholin-4-yl]-7-azaspiro[3.5]nonan-7-yl}methyl)piperidin-1-yl]-1,2-oxazol-5-yl}-3-methylbutanoyl]-4-hydroxy-N-[(1S)-1-[4-(4-methyl-1,3-thiazol-5-yl)phenyl]ethyl]pyrrolidine-2-carboxamide] | < 2.5 nM | > 75%
6 | Cc1ncsc1-c1ccc([C@H](C)NC(=O)[C@@H]2C[C@@H](O)CN2C(=O)[C@@H](c2cc(N3CCC(OC4CCN(C[C@H]5C[C@@H](N6CCO[C@@H](CN7C8CCC7CN(c7cc(-c9ccccc9O)nnc7N)C8)C6)C5)CC4)CC3)no2)C(C)C)cc1 [Compound 108, (2S,4R)-1-((2R)-2-(3-(4-((1-(((1S,3s)-3-((2R)-2-((3-(3-amino-6-(2-hydroxyphenyl)pyridazin-4-yl)-3,8-diazabicyclo[3.2.1]octan-8-yl)methyl)morpholino)cyclobutyl)methyl)piperidin-4-yl)oxy)piperidin-1-yl)isoxazol-5-yl)-3-methylbutanoyl)-4-hydroxy-N-((S)-1-(4-(4-methylthiazol-5-yl)phenyl)ethyl)pyrrolidine-2-carboxamide] | < 2.5 nM | > 75%
7 | Cc1ncsc1-c1ccc([C@H](C)NC(=O)[C@@H]2C[C@@H](O)CN2C(=O)[C@@H](c2cc(N3CCC(CN4CCC5(CC4)CC(N4CCO[C@@H](CNC6CCN(c7cc(-c8ccccc8O)nnc7N)CC6)C4)C5)CC3)no2)C(C)C)cc1 [Compound 113, (2S,4R)-1-[(2R)-2-{3-[4-({2-[(2S)-2-[({1-[3-amino-6-(2-hydroxyphenyl)pyridazin-4-yl]piperidin-4-yl}amino)methyl]morpholin-4-yl]-7-azaspiro[3.5]nonan-7-yl}methyl)piperidin-1-yl]-1,2-oxazol-5-yl}-3-methylbutanoyl]-4-hydroxy-N-[(1S)-1-[4-(4-methyl-1,3-thiazol-5-yl)phenyl]ethyl]pyrrolidine-2-carboxamide] | < 2.5 nM | > 75%
8 | Cc1ncsc1-c1ccc([C@H](C)NC(=O)[C@@H]2C[C@@H](O)CN2C(=O)[C@@H](c2cc(N3CCC(CN4CCC(O[C@H]5C[C@H](N6CCC([C@@H](C)n7cc(-c8cc(-c9ccccc9O)nnc8N)cn7)CC6)C5)CC4)CC3)no2)C(C)C)cc1 (single isomer, unassigned) [Compound 7] | < 2.5 nM | > 75%
9 | CC(C)[C@@H](C(=O)N1C[C@H](O)C[C@H]1C(=O)N[C@H](C)c1cc(F)c(C#N)cc1F)c1cc(N2CCC(CN3CCC(O[C@H]4C[C@H](Oc5cc(N6C7CCC6CN(c6cc(-c8ccccc8O)nnc6N)C7)ccn5)C4)CC3)CC2)no1 [Compound 3, (2S,4R)-N-[(1R)-1-(4-cyano-2,5-difluorophenyl)ethyl]-4-hydroxy-1-[(2R)-3-methyl-2-{3-[4-({4-[(1r,3r)-3-[(4-{3-[3-amino-6-(2-hydroxyphenyl)pyridazin-4-yl]-3,8-diazabicyclo[3.2.1]octan-8-yl}pyridin-2-yl)oxy]cyclobutoxy]piperidin-1-yl}methyl)piperidin-1-yl]-1,2-oxazol-5-yl}butanoyl]pyrrolidine-2-carboxamide] | ≥ 30 nM | –
10 | Cc1ncsc1-c1ccc([C@H](C)NC(=O)[C@@H]2C[C@@H](O)CN2C(=O)[C@@H](c2cc(N3CCC(CN4CCC5(CC4)CC(N4CCO[C@@H]([C@@H](C)n6cc(C#Cc7cc(-c8ccccc8O)nnc7N)cn6)C4)C5)CC3)no2)C(C)C)cc1 [Compound 99, (2S,4R)-1-[(2R)-2-{3-[4-({2-[(2R)-2-[(1R)-1-(4-{2-[3-amino-6-(2-hydroxyphenyl)pyridazin-4-yl]ethynyl}-1H-pyrazol-1-yl)ethyl]morpholin-4-yl]-7-azaspiro[3.5]nonan-7-yl}methyl)piperidin-1-yl]-1,2-oxazol-5-yl}-3-methylbutanoyl]-4-hydroxy-N-[(1S)-1-[4-(4-methyl-1,3-thiazol-5-yl)phenyl]ethyl]pyrrolidine-2-carboxamide] | < 2.5 nM | > 75%
11 | Cc1ncsc1-c1ccc([C@H](C)NC(=O)[C@@H]2C[C@@H](O)CN2C(=O)[C@@H](c2cc(N3C4CCC3CC(CN3CCC(O[C@H]5C[C@H](Oc6cc(N7C8CCC7CN(c7cc(-c9ccccc9O)nnc7N)C8)ccn6)C5)CC3)C4)no2)C(C)C)cc1 (stereo partly drawn) [Compound 21, (2S,4R)-4-hydroxy-N-[(1S)-1-[4-(4-methyl-1,3-thiazol-5-yl)phenyl]ethyl]-1-[(2R)-3-methyl-2-{3-[3-({4-[(1r,3r)-3-[(4-{3-[3-amino-6-(2-hydroxyphenyl)pyridazin-4-yl]-3,8-diazabicyclo[3.2.1]octan-8-yl}pyridin-2-yl)oxy]cyclobutoxy]piperidin-1-yl}methyl)-8-azabicyclo[3.2.1]octan-8-yl]-1,2-oxazol-5-yl}butanoyl]pyrrolidine-2-carboxamide] | < 2.5 nM | > 75%
12 | Cc1ncsc1-c1ccc([C@H](C)NC(=O)[C@@H]2C[C@@H](O)CN2C(=O)[C@@H](c2cc(N3CCC(CN4CCC(O[C@H]5C[C@H](N6CCC(O)(CN7C8CCC7CN(c7cc(-c9ccccc9O)nnc7N)C8)CC6)C5)CC4)CC3)no2)C(C)C)cc1 [Compound 11, (2S,4R)-4-hydroxy-N-[(1S)-1-[4-(4-methyl-1,3-thiazol-5-yl)phenyl]ethyl]-1-[(2R)-3-methyl-2-{3-[4-({4-[(1r,3r)-3-[4-({3-[3-amino-6-(2-hydroxyphenyl)pyridazin-4-yl]-3,8-diazabicyclo[3.2.1]octan-8-yl}methyl)-4-hydroxypiperidin-1-yl]cyclobutoxy]piperidin-1-yl}methyl)piperidin-1-yl]-1,2-oxazol-5-yl}butanoyl]pyrrolidine-2-carboxamide] | < 2.5 nM | > 75%
13 | CC(C)[C@@H](C(=O)N1C[C@H](O)C[C@H]1C(=O)N[C@@H](C)c1ccc(-c2ccnn2C)cc1)c1cc(N2CCC(OC3CCN(CC4CC(N5CCC([C@@H](C)n6cc(C#Cc7cc(-c8ccccc8O)nnc7N)cn6)CC5)C4)CC3)CC2)no1 (stereo partly drawn) [Compound 110, (2S,4R)-1-[(2R)-2-{3-[4-({1-[(3-{4-[(1R)-1-(4-{2-[3-amino-6-(2-hydroxyphenyl)pyridazin-4-yl]ethynyl}-1H-pyrazol-1-yl)ethyl]piperidin-1-yl}cyclobutyl)methyl]piperidin-4-yl}oxy)piperidin-1-yl]-1,2-oxazol-5-yl}-3-methylbutanoyl]-4-hydroxy-N-[(1S)-1-[4-(1-methyl-1H-pyrazol-5-yl)phenyl]ethyl]pyrrolidine-2-carboxamide] | < 2.5 nM | > 75%
